According to article PMC9227096, “Design, Synthesis, and In Vitro, In Silico and In Cellulo Evaluation of New Pyrimidine and Pyridine Amide and Carbamate Derivatives as Multi-Functional Cholinesterase Inhibitors” (Pharmaceuticals, 2022):

Legend:
MTT cell viability assay = format: cell-based; settings: human, U-87 MG glioblastoma astrocytoma cells, U-87 MG cells; for viability at 24 h, 10 µM: 10 µM (12 and 18: up to 10 µM)
Description: Compounds 12, 14 and 18 were tested to evaluate the cytotoxic effects on U-87 MG Cell Line from human brain (glioblastoma astrocytoma) at concentration ranging from 1 to 50 µM.
The compounds 12, 14 and 18 were evaluated for cell viability effects using the MTT assay. Briefly, U-87 MG Cell Line from human brain (glioblastoma astrocytoma) (ATCC, Manassas, VA, USA) were seeded into 96-well microtiter plates (NunclonTM, Nunc, Germany) at a density of 1.5 × 10^4 cells/well. […]. After an incubation time of 24 h, the medium was replaced by a new, fresh medium containing 0.5 mg/mL MTT (Sigma, Deisenhofen, Germany). After 2 h at 37 °C in 5%, CO2 unreacted dye was removed and the cells were dissolved by DMSO (Merck, Darmstadt, Germany). Absorbance was read at 570 nm by a microtiter spectrophotometer plate reader. The data were expressed as absorbance relative to untreated cells in the same experiment and standardized to 100%. All data points were performed in triplicate and at least three independent experiments.

equine BChE (eqBChE) [1] = molecular target: T1, equine BChE (eqBChE) (Equus caballus, UniProt P81908); assay: Determination of IC50 vs. eqBChE; format: biochemical; settings: IC50 ± SE, 100 µM acetylthiocholine, compound 18 after incubation for 1 h
T1 construct: purchased Sigma-Aldrich (Milan, Italy)
Description: The recorded data were analyzed with the enzyme kinetic module of SigmaPlot (Systat Software, Palo alto, CA, USA). Each measurement was replicated three times and the IC50 value obtained was confirmed by repeating the experiment twice. […] The IC50 plot of the tested compound is reported in the Supplementary Materials (Figure S3).
The recorded data were analyzed by the enzyme kinetic module of SigmaPlot, plotting the percentages of inhibition as a function of the different concentrations of inhibitor, expressed in logarithmic scale, in order to obtain the sigmoid graph, from which it was possible to determinate the IC50 value of the tested compound. The IC50 value was confirmed by repeating the experiment twice.

equine BChE (eqBChE) [2] = molecular target: T1, equine BChE (eqBChE); assay: Inhibition constant and mechanism vs. eqBChE by Dixon's method; format: biochemical; settings: inhibitor 200-1800 nM, acetylthiocholine 100-300 µM; for Ki: eqBChE, read-out: Ki ± SD
Description: The recorded data were analysed with the enzyme kinetic module of SigmaPlot in order to find the best fitting model of inhibition, using the linear regression analysis. The reference kinetic models used in the regression analysis were: competitive, non-competitive, uncompetitive and mixed. Each determination was repeated five times and incorrect values were discarded to reduce the standard deviation to within the limit of 5%. In this way, the regression lines obtained have a linear regression coefficient (R^2) higher than 0.98. […] The Dixon’s plots of tested compounds are reported in the Supplementary Materials (Figures S1 and S2).
The constant and the mechanism of inhibition vs. eqBChE were determined for the compounds 12 and 14. For each compound a 500 μM stock solution was prepared in H2O/DMSO and diluted in water to prepare solutions of opportune concentrations (10, 30 and 60 μM) in order to introduce the cuvette volumes ranging from 60 to 100 μL to obtain the desired final concentrations (200–1800 nM). The maximum amount of DMSO used for the preparation of the stock solution was calculated in order to obtain a DMSO content in cuvette of <0.033%.
An amount of 3.0 mL of 0.1 M phosphate buffer (pH = 7.4), containing DTNB (0.25 mM) and eqBChE (0.083 UmL^−1), were mixed with the opportune volume of inhibitor, to obtain, in the cuvette, a final inhibitor concentration between 200 and 1800 nM. With this solution the blank was made. […]. The absorbance variations were measured at 412 nm at 25 °C between 0.5 and 1.5 min.
In order to determine the inhibition constants (Ki) and inhibition mechanism the rates of hydrolysis at three different concentrations of substrate in the presence of five different concentration of inhibitor were measured. The recorded data were analyzed by the enzyme kinetic module of SigmaPlot (version 8.02), plotting the reciprocal of rate of hydrolysis (1/v, min/μM) vs. the concentration of inhibitor (nM), according to Dixon’s method in order to find the best fitting model of inhibition, as indicated by calculated linear regression coefficient R^2.

T1 sequence (P81908 whole entry): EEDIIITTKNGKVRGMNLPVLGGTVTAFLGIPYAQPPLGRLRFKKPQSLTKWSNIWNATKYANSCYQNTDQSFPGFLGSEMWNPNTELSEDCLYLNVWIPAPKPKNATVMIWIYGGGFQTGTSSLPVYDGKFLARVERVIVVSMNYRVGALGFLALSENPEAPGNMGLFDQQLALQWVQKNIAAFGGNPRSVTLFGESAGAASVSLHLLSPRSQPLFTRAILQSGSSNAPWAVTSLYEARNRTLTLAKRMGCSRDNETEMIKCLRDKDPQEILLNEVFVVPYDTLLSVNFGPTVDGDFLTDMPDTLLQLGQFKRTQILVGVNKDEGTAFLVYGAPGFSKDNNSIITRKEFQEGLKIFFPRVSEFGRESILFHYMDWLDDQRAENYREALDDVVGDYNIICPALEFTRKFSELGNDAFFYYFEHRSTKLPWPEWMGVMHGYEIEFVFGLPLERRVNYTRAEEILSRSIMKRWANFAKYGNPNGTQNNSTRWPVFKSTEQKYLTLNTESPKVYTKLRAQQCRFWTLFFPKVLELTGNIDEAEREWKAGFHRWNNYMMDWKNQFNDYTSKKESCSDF

O=C(NCCCCCCNc1ccccn1)Oc1ccccc1 [Compound 18, Phenyl (6-(pyridin-2-ylamino)hexyl)carbamate]
viability at 24 h, 10 µM (MTT cell viability assay): > 90% | viability at 24 h, 50 µM (MTT cell viability assay): > 35% | IC50 (equine BChE (eqBChE) [1]): 0.454 µM

O=C(NCCCCCCNc1ccccn1)c1ccccc1 [Compound 12, N-(6-(pyridin-2-ylamino)hexyl)benzamide]
Ki (equine BChE (eqBChE) [2]): 2.99 ± 0.19 µM | Mechanism of inhibition on eqBChE (equine BChE (eqBChE) [2]): Competitive | viability at 24 h, 10 µM (MTT cell viability assay): > 90% | viability at 24 h, 50 µM (MTT cell viability assay): > 35%

O=C(Cc1ccc(Oc2ccccc2)cc1)NCCCCCCNc1ccccn1 [Compound 14, 2-(4-phenoxyphenyl)-N-(6-(pyridin-2-ylamino)hexyl)acetamide]
Ki (equine BChE (eqBChE) [2]): 0.621 ± 0.043 µM | Mechanism of inhibition on eqBChE (equine BChE (eqBChE) [2]): Competitive | viability at 24 h, 10 µM (MTT cell viability assay): > 65% | viability at 24 h, 50 µM (MTT cell viability assay): > 30%
